How the values were obtained:
Type in all cases: in vivo
[1] = system: Polygonum convolvulus (POLCO); assay: B2 Post-Emergence Efficacy - Test 2; details: 15 days after application, 0-100 scale
How it was run: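 Visual phytotoxicity on a 0–100 scale, where 100 means total kill, was recorded 15 days following a single post-emergence spray. The spray was an aqueous dilution of active ingredient in IF50 with 0.2% v/v Genapol X080, applied to 12-day-old plants.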

[2] = system: Echinochloa crus-galli (ECHCG); assay: B1 Post-Emergence Efficacy - Test 1; details: 1000 g/ha, after 13 days, five point scale
How it was run: (§1)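 Glasshouse post-emergence test: compound at 1000 g/ha sprayed on plants 8 days after sowing, controlled 24/16° C. day/night with 14 h light. Percentage damage read at 13 days, banded into five classes, 5 meaning 80-100%.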

[3] = system: Ipomoea hederacea (IPOHE); assay: B1 Post-Emergence Efficacy - Test 1; details: 1000 g/ha, after 13 days, five point scale
How it was run: as §1

Solanum nigrum (SOLNI) = assay: B1 Post-Emergence Efficacy - Test 1; details: 1000 g/ha, after 13 days, five point scale
How it was run: as §1

Lolium perenne (LOLPE) = assay: B1 Post-Emergence Efficacy - Test 1; details: 1000 g/ha, after 13 days, five point scale
How it was run: as §1

[4] = system: Amaranthus retoflexus (AMARE); assay: B1 Post-Emergence Efficacy - Test 1; details: 1000 g/ha, after 13 days, five point scale
How it was run: as §1

Row | Compound | Herbicidal activity POLCO ([1]; 15 g/Ha) | Herbicidal activity POLCO ([1]; 60 g/Ha) | Herbicidal activity POLCO ([1]; 125 g/Ha) | Herbicidal activity POLCO ([1]; 250 g/Ha) | Herbicidal activity POLCO ([1]; 500 g/Ha) | percentage damage caused to the plant, ECHCG [2] | percentage damage caused to the plant, IPOHE [3] | percentage damage caused to the plant, SOLNI (Solanum nigrum (SOLNI)) | percentage damage caused to the plant, LOLPE (Lolium perenne (LOLPE)) | percentage damage caused to the plant, AMARE [4] | Herbicidal activity POLCO ([1]; 30 g/Ha)
1 | Cc1nn(C)c(=O)c(-c2c(F)ccc(Cl)c2CCc2ccc(C#N)cc2)c1O [Compound 1.024, 4-[3-chloro-6-fluoro-2-[2-[4-(cyano)phenyl]ethyl]phenyl]-5-hydroxy-2,6-dimethyl-pyridazin-3-one] | 80 | 90 | 90 | 90 | 100 | 5 (5=80-100%) | 5 (5=80-100%) | 5 (5=80-100%) | 5 (5=80-100%) | 5 (5=80-100%) | 
2 | Cc1nn(C)c(=O)c(-c2c(F)ccc(Cl)c2CCc2ccc(C(F)(F)F)nc2)c1O [Compound 1.042, 4-[3-chloro-6-fluoro-2-[2-[6-(trifluoromethyl)-3-pyridyl]ethyl]phenyl]-5-hydroxy-2,6-dimethyl-pyridazin-3-one] | 80 | 90 | 90 | 90 | 100 | 5 (5=80-100%) | 5 (5=80-100%) | 5 (5=80-100%) | 5 (5=80-100%) | 5 (5=80-100%) | 80
3 | Cc1nn(C)c(=O)c(-c2c(F)ccc(Cl)c2CCc2ccc(F)cc2)c1O [Compound 1.048, 4-[3-chloro-6-fluoro-2-[2-(4-fluorophenyl)ethyl]phenyl]-5-hydroxy-2,6-dimethyl-pyridazin-3-one] | 60 | 90 | 90 | 90 | 90 | 5 (5=80-100%) | 5 (5=80-100%) | 5 (5=80-100%) | 5 (5=80-100%) | 5 (5=80-100%) | 70
4 | Cc1nn(C)c(=O)c(-c2c(F)ccc(Cl)c2CCc2ccccc2C(F)(F)F)c1O [Compound 1.066, 4-[3-chloro-6-fluoro-2-[2-[2-(trifluoromethyl)phenyl]ethyl]phenyl]-5-hydroxy-2,6-dimethyl-pyridazin-3-one] | 70 | 90 | 90 | 100 | 100 | 5 (5=80-100%) | 5 (5=80-100%) | 5 (5=80-100%) | 4 (4=60-79%) | 5 (5=80-100%) | 80
5 | Cc1nn(C)c(=O)c(-c2c(F)ccc(Cl)c2CCc2ccc(Cl)cc2)c1OC(=O)C(C)C [Compound 1.089, [5-[3-chloro-2-[2-(4-chlorophenyl)ethyl]-6-fluoro-phenyl]-1,3-dimethyl-6-oxo-pyridazin-4-yl] 2-methylpropanoate] |  |  |  |  |  | 5 (5=80-100%) | 5 (5=80-100%) | 5 (5=80-100%) | 5 (5=80-100%) | 5 (5=80-100%) | 
6 | Cc1nn(C)c(=O)c(-c2c(F)ccc(Cl)c2CCc2ccc(F)cc2)c1OC(=O)C(C)C [Compound 1.125, [5-[3-chloro-6-fluoro-2-[2-(4-fluorophenyl)ethyl]phenyl]-1,3-dimethyl-6-oxo-pyridazin-4-yl] 2-methylpropanoate] | 90 | 90 | 90 | 90 | 90 | 5 (5=80-100%) | 5 (5=80-100%) | 5 (5=80-100%) | 5 (5=80-100%) | 5 (5=80-100%) | 90
